According to ChEMBL document CHEMBL5329214, “4-Arylidene curcumin derivatives in vitro inhibit α-Synuclein aggregation and disaggregate the preformed fibril” (Bioorg Med Chem, 2023):
Activity calls are given as the source filed them. The rule behind the calls is not given here.

Legend:
Alpha-synuclein [1] = target: T1, Alpha-synuclein (Homo sapiens, UniProt P37840); assay: Inhibition of alpha-Synuclein (unknown origin) aggregation incubated for 72 hrs by ThT-based fluorescence analysis
Alpha-synuclein [2] = target: T1, Alpha-synuclein; assay: Inhibition of alpha-Synuclein (unknown origin) aggregation assessed as alteration in typical alpha-Syn "S" shaped aggregation kinetics by measuring reduction in aggregation rate in elongation phase at 30 uM measured for 86 hrs by ThT-based fluorescence analysis
Alpha-synuclein [3] = target: T1, Alpha-synuclein; assay: Inhibition of alpha-Synuclein (unknown origin) aggregation assessed as alteration in typical alpha-Syn "S" shaped aggregation kinetics by measuring weakening of primary nucleation in lag phase at 30 uM measured for 86 hrs by ThT-based fluorescence analysis
Alpha-synuclein [4] = target: T1, Alpha-synuclein; assay: Inhibition of alpha-Synuclein (unknown origin) aggregation assessed as alteration in typical alpha-Syn "S" shaped aggregation kinetics by measuring reduction in oligomeric nuclei in lag phase at 30 uM measured for 86 hrs by ThT-based fluorescence analysis

Row | IC50 (Alpha-synuclein [1]) | inhibition (Alpha-synuclein [2]) | inhibition (Alpha-synuclein [3]) | inhibition (Alpha-synuclein [4]) | Compound
1 | 3.3 µM |  |  |  | COc1cc(/C=C/C(=O)CC(=O)/C=C/c2ccc(O)c(OC)c2)ccc1O [CURCUMIN]
2 | 4.39 µM | Active | Active | Active | COc1cc(/C=C/C(=O)C(=Cc2ccc(O)cc2)C(=O)/C=C/c2ccc(O)c(OC)c2)ccc1O
